{
  "source": "patent US20230034248A1",
  "about": "“PLANT STOMATA OPENING PROMOTING AGENT” (OAT Agrio Co., Ltd., priority 2019, published 2023)",
  "key": {"[1]": {"test_system": "lower epidermis of Commelina benghalensis L.", "assay": "Stomatal opening promoting activity in a dark place (stomatal aperture of peeled lower epidermis)", "type": "cell-based", "details": "for Stomatal Aperture: dark place 3 hours", "experimental": "(§1) The lower epidermis of Commelina benghalensis L. was peeled off, immersed in the stomatal aperture measurement solution, and allowed to stand still in a dark place for 2 hours. Then, the lower epidermis of Commelina benghalensis L. was immersed in test solutions prepared by adding steviol to the stomatal aperture measurement solution to give 100 or 300 μM (final concentration) or in the stomatal aperture measurement solution without the addition of steviol (Comparative Example 1), and allowed to stand still in a bright place for 3 hours. The lower epidermis of Commelina benghalensis L. after immersion in the test solutions was photographed with a digital camera (LCD (Liquid Crystal Display), manufactured by KENIS LIMITED) attached to a microscope (Olympus BH2; objective lens SPlan 10 [manufactured by Olympus Corporation] magnification 200×). The stomatal aperture was measured with measurement software (digital microanalyzer, manufactured by Nippon Polaroid Corporation; Polaroid is the registered trademark). The stomatal aperture was measured for 80 or more stomata, for each addition concentration. The stomatal aperture obtained at each addition concentration was compared with the stomatal aperture obtained without the addition of steviol (0 μM, Comparative Example 1), and statistical analysis was performed by student's t-test.\n(§2) The lower epidermis of Commelina benghalensis L. that had been peeled off was immersed in the stomatal aperture measurement solution, and allowed to stand still in a dark place for 2 hours. Then, the lower epidermis of Commelina benghalensis L. was immersed in test solutions prepared by adding steviol to the stomatal aperture measurement solution to give 200 or 300 μM (final concentration) or in the stomatal aperture measurement solution without the addition of steviol (Comparative Example 4), and allowed to stand still in a dark place for 3 hours. Then, the stomatal aperture was measured as in Example 1.\nas §2, with “stevioside” for “steviol”, “give 100,” for “give”, “5),” for “4),”\nas §2, with “rebaudioside A” for “steviol”, “10, 100, 300,” for “200”, “500” for “300”, “6),” for “4),”\nas §2, with “FARM A” for “steviol”, “a 2,000-, 1,000-,” for “200”, “500-fold dilution” for “300 μM”, “7),” for “4),”"}, "[2]": {"test_system": "lower epidermis of Commelina benghalensis L.", "assay": "Abscisic acid-induced stomatal closure inhibitory activity, first evaluation (stomatal aperture of peeled lower epidermis)", "type": "cell-based", "details": "for Stomatal Aperture: 2 hours", "experimental": "as §1\nThe lower epidermis of Commelina benghalensis L. was peeled off, immersed in the stomatal aperture measurement solution, and allowed to stand still in a bright place for 3 hours. Then, the lower epidermis of Commelina benghalensis L. was immersed in test solutions prepared by adding 10 μM (final concentration) of abscisic acid and 400 or 600 μM of steviol to the stomatal aperture measurement solution or in the stomatal aperture measurement solution without the addition of steviol (Comparative Example 8) prepared by adding 10 μM (final concentration) of abscisic acid alone, and allowed to stand still for 2 hours. Then, the stomatal aperture was measured as in Example 1.\n(§3) The lower epidermis of Commelina benghalensis L. was peeled off, immersed in the stomatal aperture measurement solution, and allowed to stand still in a bright place for 3 hours. Then, the lower epidermis of Commelina benghalensis L. was immersed in test solutions prepared by adding 10 μM (final concentration) of abscisic acid and 300 or 800 μM (final concentration) of stevioside to the stomatal aperture measurement solution or in the stomatal aperture measurement solution without the addition of stevioside (Comparative Example 9) prepared by adding 10 μm (final concentration) of abscisic acid alone, and allowed to stand still for 2 hours. Then, the stomatal aperture was measured as in Example 1.\nas §3, with “100, 300,” for “300”, “500” for “800”, “rebaudioside A” for “stevioside”, “10)” for “9)”\nThe lower epidermis of Commelina benghalensis L. was peeled off, immersed in the stomatal aperture measurement solution, and allowed to stand still in a bright place for 3 hours. […]"}, "[3]": {"details": "addition concentration 300 μM with 10 μM abscisic acid"}},
  "data": [
    {"smiles": "C=C1C[C@@]23CC[C@H]4[C@@](C)(CCC[C@@]4(C)C(=O)O[C@@H]4O[C@H](CO)[C@@H](O)[C@H](O)[C@H]4O)[C@@H]2CC[C@]1(O[C@@H]1O[C@H](CO)[C@@H](O)[C@H](O[C@@H]2O[C@H](CO)[C@@H](O)[C@H](O)[C@H]2O)[C@H]1O[C@@H]1O[C@H](CO)[C@@H](O)[C@H](O)[C@H]1O)C3", "note": "[rebaudioside A]", "values": [
      {"measurement": "Stomatal Aperture", "setting": "[1]; addition concentration 10 μM", "result": "8.70 ± 0.39", "unit": "μm"},
      {"measurement": "Stomatal Aperture", "setting": "[1]; addition concentration 100 μM", "result": "9.53 ± 0.45", "unit": "μm"},
      {"measurement": "Stomatal Aperture", "setting": "[1]; addition concentration 300 μM", "result": "11.46 ± 0.55", "unit": "μm"},
      {"measurement": "Stomatal Aperture", "setting": "[1]; addition concentration 500 μM", "result": "9.05 ± 0.40", "unit": "μm"},
      {"measurement": "stomatal aperture as compared to without the addition (student's t-test)", "setting": "[1]; every concentration (10, 100, 300, 500 μM), dark place", "result": "statistically significant increase in the stomatal aperture"},
      {"measurement": "stomatal aperture as compared to without the addition (student's t-test)", "setting": "[2]; 100, 300, or 500 μM with 10 μM abscisic acid", "result": "statistically significant increase in the stomatal aperture"},
      {"measurement": "Stomatal Aperture", "setting": "[2]; addition concentration 100 μM with 10 μM abscisic acid", "result": "7.74 ± 2.90", "unit": "μm"},
      {"measurement": "Stomatal Aperture", "setting": "[2]; [3]", "result": "9.85 ± 2.57", "unit": "μm"},
      {"measurement": "Stomatal Aperture", "setting": "[2]; addition concentration 500 μM with 10 μM abscisic acid", "result": "9.32 ± 2.69", "unit": "μm"}
    ]},
    {"smiles": "C=C1C[C@@]23CC[C@H]4[C@@](C)(CCC[C@@]4(C)C(=O)O[C@@H]4O[C@H](CO)[C@@H](O)[C@H](O)[C@H]4O)[C@@H]2CC[C@]1(O[C@@H]1O[C@H](CO)[C@@H](O)[C@H](O)[C@H]1O[C@@H]1O[C@H](CO)[C@@H](O)[C@H](O)[C@H]1O)C3", "note": "[stevioside]", "values": [
      {"measurement": "stomatal aperture as compared to without the addition", "setting": "[1]; 100, 200 or 300 μM, dark place", "result": "an increase in the stomatal aperture"},
      {"measurement": "stomatal aperture as compared to without the addition (student's t-test)", "setting": "[1]; 100 or 200 μM, dark place", "result": "statistically significant increase in the stomatal aperture"},
      {"measurement": "Stomatal Aperture", "setting": "[1]; addition concentration 100 μM", "result": "6.83 ± 0.23", "unit": "μm"},
      {"measurement": "Stomatal Aperture", "setting": "[1]; addition concentration 200 μM", "result": "7.33 ± 0.31", "unit": "μm"},
      {"measurement": "Stomatal Aperture", "setting": "[1]; addition concentration 300 μM", "result": "5.81 ± 0.20", "unit": "μm"},
      {"measurement": "stomatal aperture as compared to without the addition (student's t-test)", "setting": "[2]; 300 or 800 μM with 10 μM abscisic acid", "result": "statistically significant increase in the stomatal aperture"},
      {"measurement": "Stomatal Aperture", "setting": "[2]; [3]", "result": "7.03 ± 0.39", "unit": "μm"},
      {"measurement": "Stomatal Aperture", "setting": "[2]; addition concentration 800 μM with 10 μM abscisic acid", "result": "6.49 ± 0.32", "unit": "μm"}
    ]},
    {"smiles": "C=C1C[C@@]23CC[C@H]4[C@@](C)(CCC[C@@]4(C)C(=O)O)[C@@H]2CC[C@]1(O)C3", "note": "[steviol]", "values": [
      {"measurement": "stomatal aperture as compared to without the addition (student's t-test)", "setting": "[1]; 200 or 300 μM, dark place", "result": "statistically significant increase in the stomatal aperture"},
      {"measurement": "Stomatal Aperture", "setting": "[1]; addition concentration 200 μM", "result": "15.00 ± 0.32", "unit": "μm"},
      {"measurement": "Stomatal Aperture", "setting": "[1]; addition concentration 300 μM", "result": "11.94 ± 0.42", "unit": "μm"},
      {"measurement": "stomatal aperture as compared to without the addition (student's t-test)", "setting": "[2]; 400 or 600 μM with 10 μM abscisic acid", "result": "statistically significant increase in the stomatal aperture"},
      {"measurement": "Stomatal Aperture", "setting": "[2]; addition concentration 400 μM with 10 μM abscisic acid", "result": "10.65 ± 0.48", "unit": "μm"},
      {"measurement": "Stomatal Aperture", "setting": "[2]; addition concentration 600 μM with 10 μM abscisic acid", "result": "13.27 ± 0.49", "unit": "μm"}
    ]}
  ]
}
